# Earlier results, collected in patent US7534787B2, “Method of treating diseases and conditions associated with an altered level of amyloid beta peptides and new enolcarboxamide compounds” (Boehringer Ingelheim International GmbH, priority 2004, dated 2009).
# System: Aβ42
# Settings: according to table 3 of WO 01/78721
row,Structure (SMILES),Aβ42 lowering activity
1,Cc1cc(NC(=O)C2=C(O)c3ccccc3S(=O)(=O)N2C)no1 [isoxicam],do not lower or even increase the Aβ42 level
2,CN1C(C(=O)Nc2ccccn2)=C(O)c2ccccc2S1(=O)=O [piroxicam],do not lower or even increase the Aβ42 level
